Experiments:
[1] = system: Colo205; experiment: Small-molecule inhibitor proliferation assay (crystal violet), Colo205; assay type: cell-based; conditions: Homo sapiens, COLO 205, 168 h, β-catenin pathway active, proliferation 7 d post treatment, read-out: IC50 Dasatinib
Procedure: (§1) (A) The indicated cancer cell lines were treated with various concentrations of dasatinib and proliferation was measured 7 days post treatment. (B) HCT116 or (C) HuTu80 cells stably expressing a dastinib resistant YES1 (T348I) or SRC (T341I) were treated as in (A). (D) Representative picture of HCT116 cells treated as in (B).
(§2) 6000 cell/well were plated in 24-well plates and the indicated doses of dasatinib (Selleck, Houston) or vehicle was added 24 hr later. Proliferation was measured after 7 d by crystal violet staining.

[2] = system: HCT116; experiment: Small-molecule inhibitor proliferation assay (crystal violet), HCT116; assay type: cell-based; conditions: Homo sapiens, HCT-116, 168 h, β-catenin pathway active, proliferation 7 d post treatment, read-out: IC50 Dasatinib
Procedure: as §1, §2

[3] = system: HT55; experiment: Small-molecule inhibitor proliferation assay (crystal violet), HT55; assay type: cell-based; conditions: Homo sapiens, 168 h, β-catenin pathway active, proliferation 7 d post treatment, read-out: IC50 Dasatinib
Procedure: as §1, §2

[4] = system: HuTu80; experiment: Small-molecule inhibitor proliferation assay (crystal violet), HuTu80; assay type: cell-based; conditions: Homo sapiens, 168 h, β-catenin pathway active, proliferation 7 d post treatment, read-out: IC50 Dasatinib
Procedure: as §1, §2

[5] = system: DLD1; experiment: Small-molecule inhibitor proliferation assay (crystal violet), DLD1; assay type: cell-based; conditions: Homo sapiens, DLD-1, 168 h, β-catenin pathway active, proliferation 7 d post treatment, read-out: IC50 Dasatinib
Procedure: as §1, §2

[6] = system: SW480; experiment: Small-molecule inhibitor proliferation assay (crystal violet), SW480; assay type: cell-based; conditions: Homo sapiens, 168 h, β-catenin pathway active, proliferation 7 d post treatment, read-out: IC50 Dasatinib
Procedure: as §1, §2

[7] = system: KM12; experiment: Small-molecule inhibitor proliferation assay (crystal violet), KM12; assay type: cell-based; conditions: Homo sapiens, 168 h, β-catenin pathway Non-active, proliferation 7 d post treatment, read-out: IC50 Dasatinib
Procedure: as §1, §2

[8] = system: RKO; experiment: Small-molecule inhibitor proliferation assay (crystal violet), RKO; assay type: cell-based; conditions: Homo sapiens, 168 h, β-catenin pathway Non-active, proliferation 7 d post treatment, read-out: IC50 Dasatinib
Procedure: as §1, §2

[9] = system: APC null organoids; experiment: Three-dimensional primary colon organoid culture, APC null; assay type: cell-based, mouse; conditions: 50 nM
Procedure: […] (B) Quantification of results in (A). Error bars represent SD from four replicates. Blank denotes wells where no organoids were added. (C) WT or AXIN1 mutant (Masterblind) zebrafish were treated with 2 μM of dasatinib from 6-8 dpf. Arrow indicates developing gut. (D) H&E staining of zebrafish in (C) width of epithelium is noted by bars. (E) The number of epithelial cells/section was measured in WT or AXIN1 mutant zebrafish treated with 2 μM of dasatinib or DMSO. Error bars represent the SD from 20 different sections from five treated fish. p value was calculated by using Student's t test.
(§3) Colons from Apc flox/flox; villin-CreER mice were dissected lengthwise and washed in cold PBS. 0.5-1 cm segment per dish was minced extensively on ice and embedded in a 3D collagen gel by using a double-dish culture system (Ootani et al., 2009). Tamoxifen (Sigma, 2 μM in ethanol) or vehicle (ethanol) was applied on the day of initial plating for 7 days to generate APC null or WT organoids.

[10] = system: WT organoids; experiment: Three-dimensional primary colon organoid culture, WT; assay type: cell-based, mouse; conditions: WT organoids treated with dasatinib
Procedure: (A) Representative images of colon organoids derived from WT or APC null mice treated for 6 days with 100 nM of dasatinib. (B) Quantification of results in (A). Error bars represent SD from four replicates. Blank denotes wells where no organoids were added. (C) WT or AXIN1 mutant (Masterblind) zebrafish were treated with 2 μM of dasatinib from 6-8 dpf. Arrow indicates developing gut. (D) H&E staining of zebrafish in (C) width of epithelium is noted by bars. (E) The number of epithelial cells/section was measured in WT or AXIN1 mutant zebrafish treated with 2 μM of dasatinib or DMSO. Error bars represent the SD from 20 different sections from five treated fish. p value was calculated by using Student's t test.
as §3

[11] = system: zebrafish embryos; experiment: Zebrafish embryo gut formation (IFABP expression / gut reporter); assay type: in vivo; conditions: morpholino microinjection 50 μM; gut reporter fluorescence 4 dpf, IFABP in situ hybridization 3 dpf
Procedure: FIG. 5: YES1 is essential for tumorgenicity of β-catenin-active cells. (A) V5 immune complexes were isolated from HuTu80 or SW480 cells stably expressing WT or Y357F V5-epitope-tagged YAP1 or control V5-LacZ Immune complexes were analyzed by immunoblotting with a phosphotyrosine antibody. (B) HuTu80 or SW480 cells stably expressing V5-epitope-tagged WT YAP1 were treated for 6 hr with 0.5 or 2 μM of dasatinib. V5 immune complexes were analyzed by immunoblotting with a phosphotyrosine antibody. (C) Transgenic IFABP:RFP zebrafish were injected with 50 μM of YAP1- or YES1-specific morpholinos. Red fluorescence was assessed 4 dpf, or IFABP expression was assessed 3 dpf by using whole-mount in situ hybridization with an IFABP-specific probe. (D) Embryos were exposed to 2 μM of dasatinib at 2 dpf, and IFABP expression was assessed after 24 hr by using whole-mount in situ hybridization.
Zebrafish were maintained according to institutional animal care and use committee (IACUC-BIDMC) protocols. Validated morpholinos (MO) (Gene-Tools, PhiloMath, Oreg.) designed against the ATG site of YES1 (5′-CC […]-3′, SEQ ID NO: 1) (Jopling and Hertog, 2007) or YAP1 (5′-[…]-3′, SEQ ID NO: 2) (Skouloudaki et al., 2009) were injected into WT or gut reporter (Tg(fabp2:RFP)as200) zebrafish at the one-cell stage. […]

Row | IC50 [1] | IC50 [2] | IC50 [5] | IC50 [6] | Compound | IC50 [3] | IC50 [4] | IC50 [7] | IC50 [8] | decrease in growth of APC null organoids [9] | growth inhibition of WT organoids [10] | gut formation [11]
1 | 80 nM | 68 nM | 125 nM | 50 nM | Cc1nc(Nc2ncc(C(=O)Nc3c(C)cccc3Cl)s2)cc(N2CCN(CCO)CC2)n1 [dasatinib] | 70 nM | 70 nM | > 800 nM | > 800 nM | 70% | 5% | –
2 | – | – | – | – | 5′-CC TCTTTACTCTTGACACAGCCCAT-3′ (CCTCTTTACTCTTGACACAGCCCAT; morpholino backbone, further chemistry not given here) [YES1 morpholino] | – | – | – | – | – | – | dramatically inhibited
3 | – | – | – | – | 5′-AGCAACATTAACAACTCACTTTAGG-3′ (morpholino backbone, further chemistry not given here) [YAP1 morpholino] | – | – | – | – | – | – | dramatically inhibited

Source: US10426774B2, “Methods of treating cancer having an active Wnt/β-catenin pathway” (DANA-FARBER CANCER INSTITUTE, INC., priority 2012, dated 2019)
